US4337260A, “Imidazopyridine-spiro-piperidine compounds” (Yoshitomi Pharmaceutical Industries, Ltd., priority 1981, dated 1982)

Legend:
[1] = Cataleptogenic activity; conditions: rat, in vivo, ip; Wistar female rats; from total points of the maximum appearance of catatonia; read-out: Cataleptogenic Activity ED50
Procedure: (2) Cataleptogenic Activity
The test was performed according to the method described by W. Wirth et al. in "Archives Internationales de Pharmacodynamie et de Therapie", vol, 115, 1 ff (1958).
Groups of 5 Wistar female rats each were used. […] The ED50 was determined from total points of the maximum appearance of catatonia.

[2] = tested on: apomorphine-induced vomiting; test: Effect on apomorphine-induced vomiting; assay type: in vivo; conditions: Canis lupus familiaris, po, 2 hours prior to apomorphine hydrochloride (0.1 mg/kg, s.c.); beagle dogs; vomiting checked for 2 hours
Procedure: (1) Effect on apomorphine-induced vomiting
The test was performed according to the method described by M. Nakanishi et al. in "Arzneimittel-Forschung", vol. 21, 391 ff (1971).
Groups of 5-10 beagle dogs of both sexes each were used. The test compound was administered orally 2 hours prior to the treatment with apomorphine hydrochloride (0.1 mg/kg, s.c.). The incidence of vomiting was checked for 2 hours, and the ED50 (50% effective dose) was determined.

Structure (SMILES) | TD50 [1] [mg/kg] | ED50 [2] [mg/kg]
CN(C)CCCN1c2ccccc2Sc2ccc(Cl)cc21 [Chlorpromazine, reference compound] | 12 | 5.1
Cl.Cl.O.O=C1NC2CCCCN2C12CCN(CCCN1c3ccccc3CCc3ccccc31)CC2 (centres unmarked) [Test Compound A, 1'-[3-(10,11-dihydro-5H-dibenzo[b,f]azepin-5-yl)propyl]-1,2,3,5,6,7,8,8a-octahydro-2-oxo-imidazo[1,2-a]pyridine-3-spiro-4'-piperidine dihydrochloride monohydrate] | > 50 | 2.5
Cl.Cl.O.O=C1NC2CCCCN2C12CCN(CCCN1c3ccccc3CCc3ccc(Cl)cc31)CC2 (centres unmarked) [Test Compound B, 1'-[3-(3-chloro-10,11-dihydro-5H-dibenz[b,f]azepin-5yl)propyl]-1,2,3,5,6,7,8,8a-octahydro-2-oxo-imidazo[1,2-a]pyridine-3spiro-4'-piperidine dihydrochloride monohydrate] | > 50 | 0.5
Cl.Cl.O.O=C1N=C2CCCCN2C12CCN(CCCN1c3ccccc3CCc3ccccc31)CC2 [Test Compound C, 1'-[3-(10,11-dihydro-5H-dibenz[b,f]azepin-5-yl)propyl]-2,3,5,6,7,8-hexahydro-2-oxo-imidazo[1,2-a]pyridine-3-spiro-4'-piperidine dihydrochloride monohydrate] | > 50 | 2
